The record followed here is ChEMBL document CHEMBL1147843, “Synthesis of a novel C2-aryl pyrrolo[2,1-c][1,4]benzodiazepine-5,11-dione library: effect of C2-aryl substitution on cytotoxicity and non-covalent DNA binding” (2007).

Structures are written as SMILES.

In the first assay the test system is DNA. Kind of assay: Binding affinity to calf thymus DNA at 20 uM after 4 hrs by thermal denaturation assay. Conditions: Bos taurus. Format: nucleic-acid assay.
Consider `O=C1Nc2ccccc2C(=O)N2C=C(c3ccccc3)C[C@@H]12`, for which the ΔTm came out at 1.5 °C.

With `O=C1Nc2ccccc2C(=O)N2C=C(c3ccc(Cl)c(Cl)c3)C[C@@H]12`, the ΔTm is 2.1 °C.

`O=C1Nc2ccccc2C(=O)N2C=C(c3ccc(Br)cc3)C[C@@H]12`: the ΔTm was determined as 2 °C.

As for `Nc1ccc(C2=CN3C(=O)c4ccccc4NC(=O)[C@@H]3C2)cc1`, the ΔTm amounted to 1.1 °C.

Consider `O=Cc1ccc(C2=CN3C(=O)c4ccccc4NC(=O)[C@@H]3C2)cc1`, for which the ΔTm was 1.5 °C.

Take `O=C1Nc2ccccc2C(=O)N2C=C(c3cccc4ccccc34)C[C@@H]12`: the thermal shift (ΔTm) was 2.3 °C.

Regarding `O=C1Nc2ccccc2C(=O)N2C=C(c3cccc([N+](=O)[O-])c3)C[C@@H]12`, the ΔTm worked out at 0.9 °C.

The test system of a further assay is MCF7. Kind of assay: Cytotoxicity against human MCF7 cells assessed as cell growth at 50 uM after 48 hrs by Alamar Blue assay relative to control. Conditions: MCF7, 48 h, read-out: Activity. Format: functional.
Take `O=C1Nc2ccccc2C(=O)N2C=C(c3ccc(Cl)c(Cl)c3)C[C@@H]12`: the growth at 50 µM worked out at 51%.

With `O=C1Nc2ccccc2C(=O)N2C=C(c3ccc(Br)cc3)C[C@@H]12`, the growth at 50 µM worked out at 61%.

On to `O=C1Nc2ccccc2C(=O)N2C=C(c3cccc4ccccc34)C[C@@H]12`, for which the growth at 50 µM was found to be 42%.

The next assay deals with NCI. Kind of assay: Growth inhibition of human NCI 60 cells after 48 hrs by sulforhodamine B assay relative to control. The format is functional.
Conditions: not given
In the case of `O=C1Nc2ccccc2C(=O)N2C=C(c3ccc(Cl)c(Cl)c3)C[C@@H]12`, it took 46.8 µM to inhibit growth by half (GI50).

The compound `O=C1Nc2ccccc2C(=O)N2C=C(c3ccc(Br)cc3)C[C@@H]12` returned a GI50 of 7.41 µM.

`Cc1ccc2c(c1O)NC(O)C1CC(/C=C/C(N)=O)=CN1C2=O` (stereo not drawn) [ANTHRAMYCIN] gave a GI50 of 0.029 µM. This GI50 lies about 260-fold lower than the previous one.

As to `O=C1Nc2ccccc2C(=O)N2C=C(c3cccc4ccccc34)C[C@@H]12`, it took 14.8 µM to inhibit growth by half (GI50).

For another assay, the system named is DNA. Kind of assay: Binding affinity to calf thymus DNA at 20 uM after 72 hrs by thermal denaturation assay. The format is nucleic-acid assay. Conditions: Bos taurus.
`O=C1Nc2ccccc2C(=O)N2C=C(c3ccccc3)C[C@@H]12`: the ΔTm is 1.6 °C.

As for `O=C1Nc2ccccc2C(=O)N2C=C(c3ccc(Cl)c(Cl)c3)C[C@@H]12`, the ΔTm came to 2.2 °C.

As for `O=C1Nc2ccccc2C(=O)N2C=C(c3ccc(Br)cc3)C[C@@H]12`, the ΔTm amounted to 2.1 °C.

On to `Nc1ccc(C2=CN3C(=O)c4ccccc4NC(=O)[C@@H]3C2)cc1`, for which the ΔTm was 1.1 °C.

`O=Cc1ccc(C2=CN3C(=O)c4ccccc4NC(=O)[C@@H]3C2)cc1`: the shift in melting temperature (ΔTm) was 1.5 °C.

As to `O=C1Nc2ccccc2C(=O)N2C=C(c3cccc4ccccc34)C[C@@H]12`, the shift in melting temperature (ΔTm) worked out at 2.4 °C.

Consider `O=C1Nc2ccccc2C(=O)N2C=C(c3cccc([N+](=O)[O-])c3)C[C@@H]12`, for which the ΔTm worked out at 1 °C.

A further assay has as its system NCI-H460. Kind of assay: Cytotoxicity against human NCI-H460 cells assessed as cell growth at 50 uM after 48 hrs by Alamar Blue assay relative to control. The format is functional. Conditions: NCI-H460, 48 h, read-out: Activity.
For `O=C1Nc2ccccc2C(=O)N2C=C(c3ccc(Cl)c(Cl)c3)C[C@@H]12`, the growth at 50 µM is 5%.

On to `O=C1Nc2ccccc2C(=O)N2C=C(c3ccc(Br)cc3)C[C@@H]12`, for which the growth at 50 µM was determined as 20%.

`O=C1Nc2ccccc2C(=O)N2C=C(c3cccc4ccccc34)C[C@@H]12`: the growth at 50 µM worked out at 29%.

For another assay, the system named is A498. Kind of assay: Growth inhibition of human A498 cells after 48 hrs by sulforhodamine B assay relative to control. Format: functional. Conditions: A498, 48 h.
In turn, `O=C1Nc2ccccc2C(=O)N2C=C(c3ccc(Cl)c(Cl)c3)C[C@@H]12` registered a GI50 above 50 µM.

`O=C1Nc2ccccc2C(=O)N2C=C(c3ccc(Br)cc3)C[C@@H]12` had a GI50 of 0.51 µM.

`Cc1ccc2c(c1O)NC(O)C1CC(/C=C/C(N)=O)=CN1C2=O` (stereo not drawn) [ANTHRAMYCIN] returned a GI50 of 0.195 µM. This GI50 lies about 2.6-fold lower than the previous one.

In the case of `O=C1Nc2ccccc2C(=O)N2C=C(c3cccc4ccccc34)C[C@@H]12`, the GI50 turned out to be 3.16 µM. This GI50 is about 16-fold higher than that of the compound before.

Another assay relates to SF-268. Kind of assay: Cytotoxicity against human SF268 cells assessed as cell growth at 50 uM after 48 hrs by Alamar Blue assay relative to control. The format is functional. The following applies: SF-268, 48 h, read-out: Activity.
For `O=C1Nc2ccccc2C(=O)N2C=C(c3ccc(Cl)c(Cl)c3)C[C@@H]12`, the growth at 50 µM came out at 86%.

As for `O=C1Nc2ccccc2C(=O)N2C=C(c3ccc(Br)cc3)C[C@@H]12`, the growth at 50 µM amounted to 109%.

Regarding `O=C1Nc2ccccc2C(=O)N2C=C(c3cccc4ccccc34)C[C@@H]12`, the growth at 50 µM is 73%.

For a further assay, the system named is DNA. Kind of assay: Binding affinity to calf thymus DNA at 20 uM after 18 hrs by thermal denaturation assay. Format: nucleic-acid assay. Conditions: Bos taurus.
On to `O=C1Nc2ccccc2C(=O)N2C=C(c3ccccc3)C[C@@H]12`, for which the ΔTm turned out to be 1.5 °C.

Take `O=C1Nc2ccccc2C(=O)N2C=C(c3ccc(Cl)c(Cl)c3)C[C@@H]12`: the ΔTm is 2.2 °C.

Take `O=C1Nc2ccccc2C(=O)N2C=C(c3ccc(Br)cc3)C[C@@H]12`: the ΔTm is 2 °C.

For `Nc1ccc(C2=CN3C(=O)c4ccccc4NC(=O)[C@@H]3C2)cc1`, the ΔTm stood at 1.1 °C.

Turning to `O=Cc1ccc(C2=CN3C(=O)c4ccccc4NC(=O)[C@@H]3C2)cc1`, the ΔTm came out at 1.4 °C.

Consider `O=C1Nc2ccccc2C(=O)N2C=C(c3cccc4ccccc34)C[C@@H]12`, for which the shift in melting temperature (ΔTm) stood at 2.3 °C.

In the case of `O=C1Nc2ccccc2C(=O)N2C=C(c3cccc([N+](=O)[O-])c3)C[C@@H]12`, the ΔTm was determined as 1 °C.
